Data on three compounds can be found in patent US20250042974A1, “LIPID MEDIATOR CHAPERONE AND USES THEREOF” (The Children's Medical Center Corporation, priority 2021, published 2025).

The subject of one test is HUVEC. Nature of the test: TEER analysis of endothelial barrier function. It is filed as cell-based, human. The following applies: Iloprost 200 nM; HDL-S1P 100 nM S1P; AUY954 1 μM. As to the method: Transendothelial Electrical Resistance (TEER) was performed on HUVEC as described previously (Swendeman et al, 2017). Essentially, HUVECs were maintained in HUVEC Growth Medium (HGM; M199 medium supplemented with 10% FCS (Corning), 1:100 Pen-Strep (Sigma), 8 mM Glutamine (Sigma), Heparin (Sigma, 100 U, LMW) and Sheep Brain Extract prepared (REF). All cultures were maintained on Fibrobronectin (2 μg/ml) coated plates. For TEER analysis a 96 well ECIS system (96W10idf PET array, Applied BioPhysics) was employed. Wells were coated with Fibronectin (2 μg/ml) resuspended in saline for 30 minutes at room temp. HUVECs were harvested, resuspended in HGM at a cell density of 25-30×10^3 cells/well and allowed to adhere overnight. Prior to analysis, culture media was removed and replaced with M199 media supplemented with Pen-Strep/Glutamine and 1% FCS for 30 minutes. For stimulation studies, either Iloprost (Cayman Biochemicals) or Iloprost loaded onto ApoA1 or ApoA1-ApoM chaperones, or S1P prepared on ApoA1-ApoM or ApoM-Fc chaperones were added to cultures and TEER studies were performed from 3-24 hours.

The test system of a further test is human platelets. Description: Human platelet aggregation in vitro (light transmission aggregometry). It is filed as cell-based. The following applies: SFLLRN peptide-induced, 2-20 nM drug, N=2, read-out: EC50 of inhibition of platelet aggregation. As to the method: Whole blood samples were drawn from healthy donors in the presence of 10% sodium citrate (Sigma, 5577-50 ml) and were spun at 1000 rpm using Beckman centrifuge (GS-6K) for 20 min. The top Platelet-rich Plasma (PRP) layer was collected resting at a 37° C. water bath for 30 minutes. PRP was diluted with the one-fifth volume of the acid-citrate-dextrose buffer, Prostaglandin E1 (PGE1) was added to a final concentration of 0.15 μM. The mixture was spun in a conical-bottom tube at 2000 g for 10 min, and the platelet pellet was collected and suspended in pre-warmed HEPES-Tyrode-Glucose Buffer (HTG). The platelet concentration was determined and adjusted to ˜2.5×10^5/μL with HTG on a Hematology cell counter System (Drew Scientific, 850FS).
Light Transmission Aggregometry was used to evaluate the platelet response to agonists and antagonists. In a 4-channel aggregometer (Platelet ionized calcium aggregometer, Chronolog Corp Model 660), human platelets were stirred in a cuvette at 37° C. […] Data were analyzed using AGGRO/LINK software package Ver 5.2.5 and Microsoft office professional plus 2013.

The test system of a further test is NF-κB. Nature of the test: TNFα-induced NF-κB luciferase reporter assay in HMEC. Format: cell-based, human. The method, then: TNFα-dependent NF-κB signaling was determined by using an NFκB-Luciferase based reporter assay system (pGL4.32[luc2P/NF-κB-RE/Hygro]; Promega). A stable NFκB reporter cell line in human microvascular endothelial cells (HMEC-1; ATCC) was created. HMEC were maintained in 10% FCS/Pen-Strep MCDB media supplemented with 2 mM L-Glutamine (Sigma), EGF (2 ng/ml; R&D systems) and Hydrocortisone (1 ng/ml; Sigma). […] The 5×10^5 reporter cells were distributed to 12 well plates and allowed to adhere for 24 hours. Media was replaced with MCDB media supplemented with 1% FCS, L-Glutamine. […] Samples were extracted using cell lysis buffers (Promega), luciferin substrate was added and the plates were measured for […] at 470 nm for 8-15 minutes in a SpectraMax L 96-well plate reader (Molecular Devices).
Background: In a reporter assay the amount or activity of a reporter protein is the signal.

Take `O=C(O)CCNCc1ccc2sc(-c3ccc(-c4ccccc4)c(C(F)(F)F)c3)cc2c1` [AUY954, reference compound]: the “endothelial barrier function in combination with Iloprost” value in the test on HUVEC is on record as “additive manner”.

In general, EC50 refers to the concentration at which the effect is half-maximal. For the compound `CC#CCC(C)[C@H](O)/C=C/[C@@H]1[C@H]2C/C(=C/CCCC(=O)O)C[C@H]2C[C@H]1O` (stereo partly shown) [Iloprost], the half-maximal effective concentration (EC50) with human platelets was ~0.011 µM.

As for “ApoA1: Purified Human ApoA1 (Sigma) [reference compound]”, in the test with NF-κB (100-400 μg/ml, bi-phasic dose-response), the “inhibition of TNFα-induced NF-κB activity at higher doses” value is “not as inhibitory”. Further, the “inhibition of TNFα-induced NF-κB activity” value in the test with NF-κB (low doses 25-50 μg/ml) is ~25%.
